Patent publication US20230201185A1, “TREATMENT OF TYPE 2 DIABETES OR OBESITY OR OVERWEIGHT WITH 2-[(4-{6-[(4-CYANO-2-FLUOROBENZYL)OXY]PYRIDIN-2-YL}PIPERIDIN-1-YL)METHYL]-1-[(2S)-OXETAN-2-YLMETHYL]-1H-BENZIMIDAZOLE-6-CARBOXYLIC ACID OR A PHARMACEUTICALLY SALT THEREOF” (Pfizer Inc., priority 2020, published 2023)
Like-named read-outs stand apart in the source and are kept apart here.

Key:
Type in all cases: in vivo, human
[1] = system: participants with type 2 diabetes mellitus (T2DM); assay: Clinical dose guiding study: 24-hour mean daily glucose (MDG); details: Day 28; for Mean Daily Glucose, Mean CFB: oral, on metformin
Description: (§1) This study was a randomized, double-blind (sponsor-open), parallel, placebo-controlled, multiple oral dose-escalating study of Compound 1 (in the form of its tris salt) in participants with type 2 diabetes mellitus (T2DM) on a background of metformin monotherapy.
(§2) A total of 98 participants received oral doses of Compound 1 (in the form of its tris salt) or matching placebo for 28 days, in this study. A total of approximately 12 participants were enrolled in each cohort with a randomization ration of 3:1 (9 active and 3 placebo), and 8 cohorts were enrolled in the study. Participants were admitted to the clinical research unit (CRU) on or before Day −2 and were discharged following completion of all assessments on Day 30, at principal investigator discretion. For individual participants, the total duration of participation from the Screening visit to the on-site Follow-up visit was approximately 15 weeks. A Follow-up visit and a Follow-up contact (which have been conducted by phone call) occurred 35-42 days and 56-63 days following the first dose of investigational product on Day 1, respectively. Participants who discontinued prior to completion of the study might have been replaced, at the discretion of the principal investigator and Sponsor. 92 participants completed the inpatient study.
(§3) The planned titration schemes and dosing paradigms for all Cohorts are listed in Table 2-1. • QD: once daily • BID: twice daily
(§4) Diagnosis and Main Criteria for Inclusion: The population for this study was female participants of non-childbearing potential and/or male participants with T2DM, with an HbA1c […], who were taking metformin as their only anti-hyperglycemic treatment, and who were between 18 and 70 years with T2DM at the time of consent and Screening, with a body mass index (BMI) of 24.5 to 45.4 kg/m^2 and a total body weight >50 kg (110 lb). Metformin dose was required to be 500 mg per day and was required to be stable, for at least 2 months prior to the Screening visit and was administered in the CRU according to patient's baseline dosing regimen.
(§5) Study Treatment: Compound 1 (in the form of its tris salt) was supplied as 1 mg, 10 mg, 50 mg and 100 mg immediate release (IR) tablets or 50 mg controlled release (CR) tablets (see Examples 1 and 2) for oral administration. Matching placebo tablets (2:1, Microcrystalline Cellulose: Lactose) were also provided.
(§6) Measurements of fasting plasma glucose (FPG), 24-hour mean daily glucose (MDG), HbA1C, and body weight at baseline (at Day −1) and at Day 28 (shown as change from baselin) are shown in Tables 2-2 to 2-5.
(§7) Baseline was defined as the measurement (MDG, FPG, HbA1c, or body weight) on Day −1. Randomized treatment represented the target dose at Day 28.
Observed data presented. Mean Daily Glucose (MDG) was defined as AUC24/24.

[2] = system: participants with type 2 diabetes mellitus (T2DM); assay: Clinical dose guiding study: fasting plasma glucose (FPG); details: Day 28, oral, on metformin
Description: as §1, §2, §3, §4, §5, §6, §7

[3] = system: participants with type 2 diabetes mellitus (T2DM); assay: Clinical dose guiding study: HbA1c; details: Day 28, oral, on metformin
Description: as §1, §2, §3, §4, §5, §6, §7

[4] = Clinical dose guiding study: body weight; details: Day 28, oral, T2DM on metformin
Description: as §1, §2, §3, §4, §5, §6, §7

[5] = Clinical dose guiding study: plasma pharmacokinetics and urinary recovery; details: for Tmax: read-out: median Tmax and Tmax1
Description: as §1, §2, §5

[6] = system: participants with type 2 diabetes mellitus (T2DM); assay: Clinical dose guiding study: adverse events (TEAEs); details: for number of all causality TEAEs (events) / number of all causality TEAEs: 28 days
Description: as §1, §2, §5

[7] = system: participants with type 2 diabetes mellitus (T2DM); assay: Clinical dose guiding study: ECG; details: planned treatment groups; self-limited
Description: as §1
as §2, with “inpatient study. […]” for “inpatient study.”

## N#Cc1ccc(COc2cccc(C3CCN(Cc4nc5ccc(C(=O)O)cc5n4C[C@@H]4CCO4)CC3)n2)c(F)c1 [1,3-dihydroxy-2-(hydroxymethyl)propan-2-aminium 2-[(4-{6-[(4-cyano-2-fluorobenzyl)oxy]pyridin-2-yl}piperidin-1-yl)methyl]-1-[(2S)-oxetan-2-ylmethyl]-1H-benzimidazole-6-carboxylate]
[1]; 10 mg BID, baseline 189.9
  Mean Daily Glucose, Mean CFB: -53.3 mg/dL
[1]; 15 mg BID, baseline 225.4
  Mean Daily Glucose, Mean CFB: -85.9 mg/dL
[1]; 50 mg BID, baseline 190.2
  Mean Daily Glucose, Mean CFB: -48.7 mg/dL
[1]; 70 mg BID, baseline 218.5
  Mean Daily Glucose, Mean CFB: -101.6 mg/dL
[1]; 120 mg BID Slow Titration, baseline 179.9
  Mean Daily Glucose, Mean CFB: -68.6 mg/dL
[1]; 120 mg BID, baseline 219.0
  Mean Daily Glucose, Mean CFB: -105.9 mg/dL
[1]; 120 mg QD, baseline 188.8
  Mean Daily Glucose, Mean CFB: -70.9 mg/dL
[1]; 200 mg QD Controlled Release, baseline 225.2
  Mean Daily Glucose, Mean CFB: -102.8 mg/dL
[1]; increasing efficacy at higher doses of 70 mg to 120 mg twice daily
  reductions in FPG, MDG, HbA1c, and body weight: robust reductions
[2]; 10 mg BID, baseline 158.3
  Fasting Plasma Glucose, Mean CFB: -34.3 mg/dL
[2]; 15 mg BID, baseline 198.4
  Fasting Plasma Glucose, Mean CFB: -66.6 mg/dL
[2]; 50 mg BID, baseline 168.1
  Fasting Plasma Glucose, Mean CFB: -34.5 mg/dL
[2]; 70 mg BID, baseline 186.3
  Fasting Plasma Glucose, Mean CFB: -80.6 mg/dL
[2]; 120 mg BID Slow Titration, baseline 176.3
  Fasting Plasma Glucose, Mean CFB: -75.1 mg/dL
[2]; 120 mg BID, baseline 196.9
  Fasting Plasma Glucose, Mean CFB: -89.7 mg/dL
[2]; 120 mg QD, baseline 179.9
  Fasting Plasma Glucose, Mean CFB: -48.3 mg/dL
[2]; 200 mg QD Controlled Release, baseline 195.3
  Fasting Plasma Glucose, Mean CFB: -77.3 mg/dL
[3]; 10 mg BID, baseline 8.2
  HbA1c, Mean CFB: −0.8%
[3]; 15 mg BID, baseline 8.6
  HbA1c, Mean CFB: −0.9%
[3]; 50 mg BID, baseline 8.3
  HbA1c, Mean CFB: −1.2%
[3]; 70 mg BID, baseline 8.3
  HbA1c, Mean CFB: −1.2%
[3]; 120 mg BID Slow Titration, baseline 8.2
  HbA1c, Mean CFB: −1.2%
[3]; 120 mg BID, baseline 8.5
  HbA1c, Mean CFB: −1.2%
[3]; 120 mg QD, baseline 8.2
  HbA1c, Mean CFB: −1.0%
[3]; 200 mg QD Controlled Release, baseline 8.6
  HbA1c, Mean CFB: −1.1%
[4]; 10 mg BID, baseline 99.90
  Body Weight, Mean CFB: -2.8 kg
[4]; 15mg BID, baseline 93.60
  Body Weight, Mean CFB: -2.4 kg
[4]; 50 mg BID, baseline 88.24
  Body Weight, Mean CFB: -2.4 kg
[4]; 70 mg BID, baseline 86.08
  Body Weight, Mean CFB: -4.0 kg
[4]; 120 mg BID Slow Titration, baseline 88.01
  Body Weight, Mean CFB: -5.5 kg
[4]; 120 mg BID, baseline 101.34
  Body Weight, Mean CFB: -7.9 kg
[4]; 120 mg QD, baseline 84.88
  Body Weight, Mean CFB: -4.3 kg
[4]; 200 mg QD Controlled Release, baseline 92.29
  Body Weight, Mean CFB: -3.1 kg
[5]; Day 1, BID and QD treatments, IR formulation
  dose proportionality of exposure (dose normalized mean AUC24): approximately dose proportional
[5]; Day 28, BID IR formulation cohorts
  dose proportionality of AUC24 and Cmax: approximately dose-proportional
[5]; human, plasma, Day 1, single oral dose, IR formulation, QD and BID regimens
  Tmax: 2 to 4 h
[6]; 10 mg BID group (placebo 52.0%)
  incidence of all causalities TEAEs in Gastrointestinal Disorders category: 33.3%
[6]; 10 mg BID group
  number of all causality TEAEs (events): 8 events
[6]; 15 mg BID group
  number of all causality TEAEs (events): 16 events
[6]; 15 mg BID group, moderate TEAE of headache
  participants discontinued from the study due to treatment-related TEAEs: 1 participant
[6]; 50 mg BID group
  participants with dose reduction or temporary discontinuation due to TEAEs: 4 participants
  number of all causality TEAEs: 45
[6]; 50 mg BID group, moderate decreased appetite, nausea, vomiting and mild fatigue
  participants discontinued from the study due to treatment-related TEAEs: 1 participant
[6]; 70 mg BID group
  number of all causality TEAEs: 31
[6]; 120 mg BID Slow titration group
  participants with dose reduction or temporary discontinuation due to TEAEs: 2 participants
[6]; 120 mg BID group
  participants with dose reduction or temporary discontinuation due to TEAEs: 1 participants
  number of all causality TEAEs: 43
[6]; 120 mg BID group, after missing a meal or snack, self-limited, treatment-related
  participants with mild hypoglycemia: 1 participant
[6]; 120 mg BID slow titration group, 1 treatment-related, 1 not
  severe TEAEs: 2
[6]; 120 mg BID slow titration group
  number of all causality TEAEs (events): 50 events
[6]; 120 mg BID slow titration group, not treatment-related
  SAE: 1
[6]; 120 mg QD group
  number of all causality TEAEs: 35
[6]; 200 mg QD CR group
  participants with dose reduction or temporary discontinuation due to TEAEs: 1 participants
  number of all causality TEAEs: 47
[6]; ascending, multiple, oral doses
  adverse trends in safety laboratory tests, vital signs or ECG parameters with increasing dose: no clinically significant adverse trends
[6]; ascending, multiple, oral doses, adult participants with T2DM
  overall safety and tolerability: generally safe and well-tolerated
[7]
  participants with post-baseline ECG meeting criteria of QTcF interval >450 and ≤80 or change from baseline >30 and ≤60: 3 participants

## N#Cc1ccc(COc2cccc(C3CCN(Cc4nc5ccc(C(=O)O)cc5n4C[C@@H]4CCO4)CC3)n2)c(F)c1 [Compound 1, 2-[(4-{6-[(4-Cyano-2-fluorobenzyl)oxy]pyridin-2-yl}piperidin-1-yl)methyl]-1-[(2S)-oxetan-2-ylmethyl]-1H-benzimidazole-6-carboxylic acid]
[5]; Day 28
  Urinary recovery, dose recovered unchanged in urine: < 0.1 % of the dose
[5]; human, plasma, oral, Day 28, BID and QD IR treatments
  Tmax: 3 to 10 h
[5]; human, plasma, oral, across all treatments, read-out: Mean t % (terminal half life)
  half-life: 4.7 to 8.1 h
